We go through eight molecules from the NIST ThermoML archive (doi:10.1021/je800069z).

The conditions of the data set: Ring tensiometer.

Numbers after ± are expanded uncertainties.

By surface tension liquid-gas is commonly meant the force per length acting along the surface. For the molecule `CCCCCCCn1cc[n+](C)c1.O=S(=O)([N-]S(=O)(=O)C(F)(F)F)C(F)(F)F`, the surface tension liquid-gas is reported as 32 ± 0.6 mN/m (293.15 K); 31.36 ± 0.59 mN/m (303.15 K); 30.66 ± 0.58 mN/m (313.15 K); 30.02 ± 0.57 mN/m (323.15 K); 29.5 ± 0.56 mN/m (333.15 K); 28.95 ± 0.55 mN/m (343.15 K). Besides, for the setting “353.15 K”, the surface tension liquid-gas was 28.29 ± 0.54 mN/m.
Consider `CCCCCC[n+]1ccn(C)c1.O=S(=O)([N-]S(=O)(=O)C(F)(F)F)C(F)(F)F`, for which the surface tension liquid-gas is given as 32.31 ± 0.61 mN/m (293.15 K); 31.76 ± 0.6 mN/m (303.15 K); 31.2 ± 0.59 mN/m (313.15 K); 30.6 ± 0.58 mN/m (323.15 K); 30.16 ± 0.57 mN/m (333.15 K); 29.62 ± 0.56 mN/m (343.15 K).
In the case of `CCCCCCCCCCn1cc[n+](C)c1.O=S(=O)([N-]S(=O)(=O)C(F)(F)F)C(F)(F)F`, the surface tension liquid-gas is, setting by setting: (293.15 K) 32.12 ± 0.6 mN/m; (303.15 K) 31.34 ± 0.59 mN/m; (313.15 K) 30.7 ± 0.58 mN/m; (323.15 K) 30.1 ± 0.57 mN/m; (333.15 K) 29.5 ± 0.56 mN/m; (343.15 K) 28.68 ± 0.55 mN/m.
For `CCn1cc[n+](C)c1.O=S(=O)([N-]S(=O)(=O)C(F)(F)F)C(F)(F)F`, the surface tension liquid-gas came out at 36.94 ± 0.68 mN/m (293.15 K); 36.43 ± 0.67 mN/m (303.15 K); 35.92 ± 0.66 mN/m (313.15 K); 35.51 ± 0.66 mN/m (323.15 K); 34.96 ± 0.65 mN/m (333.15 K); 34.57 ± 0.64 mN/m (343.15 K).
As to `CCCn1cc[n+](C)c1.O=S(=O)([N-]S(=O)(=O)C(F)(F)F)C(F)(F)F`, the surface tension liquid-gas is, setting by setting: (293.15 K) 34.87 ± 0.65 mN/m; (303.15 K) 34.22 ± 0.64 mN/m; (313.15 K) 33.73 ± 0.63 mN/m; (323.15 K) 33.31 ± 0.62 mN/m; (333.15 K) 32.79 ± 0.61 mN/m; (343.15 K) 32.18 ± 0.6 mN/m.
As for `CCCCCCCCn1cc[n+](C)c1.O=S(=O)([N-]S(=O)(=O)C(F)(F)F)C(F)(F)F`, the surface tension liquid-gas reads like this: (293.15 K) 31.93 ± 0.6 mN/m; (303.15 K) 31.3 ± 0.59 mN/m; (313.15 K) 30.57 ± 0.58 mN/m; (323.15 K) 29.98 ± 0.57 mN/m; (333.15 K) 29.4 ± 0.56 mN/m; (343.15 K) 28.86 ± 0.55 mN/m.
Turning to `CCCCCn1cc[n+](C)c1.O=S(=O)([N-]S(=O)(=O)C(F)(F)F)C(F)(F)F`, the surface tension liquid-gas is, setting by setting: (293.15 K) 32.9 ± 0.62 mN/m; (303.15 K) 32.41 ± 0.61 mN/m; (313.15 K) 31.83 ± 0.6 mN/m; (323.15 K) 31.27 ± 0.59 mN/m; (333.15 K) 30.77 ± 0.58 mN/m; (343.15 K) 30.31 ± 0.58 mN/m.
For `CCCC[n+]1ccn(C)c1.O=S(=O)([N-]S(=O)(=O)C(F)(F)F)C(F)(F)F`, the surface tension liquid-gas is given as 33.6 ± 0.63 mN/m (293.15 K); 33.09 ± 0.62 mN/m (303.15 K); 32.5 ± 0.61 mN/m (313.15 K); 31.92 ± 0.6 mN/m (323.15 K); 31.35 ± 0.59 mN/m (333.15 K); 30.9 ± 0.58 mN/m (343.15 K).
